Results as given in patent publication US20220160779A1, “COMPOSITION FOR PROMOTING CARTILAGE TISSUE REGENERATION” (National University Corporation Tokyo Medical and Dental …, priority 2019, published 2022).

What was measured:
synovial MSCs [1] = experiment: Proliferation assay of synovial MSCs with recombinant protein (MTT assay); assay type: cell-based, human; conditions: rh Activin A at ED50x10 and ED50x100 in 10% FBS and 0.5% FBS medium, days 0-7; FIGS. 5C and D
Description: Primary human synovial cells were isolated from the synovial tissues obtained from patients who underwent total knee arthroplasty (TKA), as described in Sekiya I. et al, Clin Orthop Relat Res, 2015, 473(7), pp. 2316 to 2326. That is, first, 0.5 to 1 mg of synovium obtained by incising the suprapatellar bursa was subjected to collagenase D treatment (Sigma, MO, USA, 3 hours at 37° C.) to disperse nucleated cells. Debris was removed by passing the cell dispersion through a 70 μm nylon mesh. Nucleated cells were seeded in a 15 cm dish at 5.7×10^2 cells/cm^2 and maintained and cultured in MEM-alpha medium supplemented with 10% FBS and antibiotics (Gibco, MA, USA) for 14 days. The cells were then separated from the dish in TripLE solution (Gibco) and seeded twice more in a new dish to obtain a sufficient cell count to be used in the experiments. Note that in all experiments, cells within 6 passages were used.
To evaluate the pro-proliferative activity of recombinant proteins (IL6, IL8, IL10, and Activin A), MTT assays were performed (see FIGS. 3C and 5C-E). Synovial MSCs were seeded to 1×10^3 cells/well in 96-well plates and cultured in 0.2 mL of normal growth medium 1 day before being subjected to recombinant protein treatment. On the following day, the medium was replaced with a fresh one (normal growth medium or medium with a reduced FBS concentration of 0.5% and recombinant protein added (10 times the concentration of ED50 or 100 times the concentration of ED50)). MTT assays were performed at days 0, 1, 3, 5, and 7 according to the method described in Denizot F. et al., J Immunol Methods, 1986, 89(2), pp. 271 to 277.
In addition, the present inventors tried to clarify the molecular mechanism of MSC proliferative activity by Activin A. It has been reported that the ERK and PI3K signal transduction pathways are activated for MSC proliferation (see Uomizu, M. et al, J Med Dent Sci., 2018, vol. 65, pp. 73 to 82). With the above in mind, Activin A (rh Activin A) was applied to synovial MSCs in the presence of PI3K-PKB/Akt and Erk1/Erk2, a specific inhibitor for each of these signal transduction pathways, and the cell count was measured by MTT assay.

synovial MSCs [2] = experiment: In-vitro differentiation assay of MSCs (cartilage, bone, adipocytes); assay type: cell-based, human
Description: In-vitro differentiation assays were performed according to the method described in Colter D C. et al, Proc Natl Acad Sci USA, 2001, 98, pp. 7841 to 7845.
To form chondrogenic spheroids, 2.5×10^5 cells were transferred into 15 mL polypropylene tubes (BD Biosciences) and subjected to centrifugation at 450×g for 10 minutes. Then, the cell pellets were cultured in chondrogenic medium containing 1000 ng/mL rhBMP-2 (Infuse Bone Graft; Medtronic, TN, USA), 10 ng/mL […], and 100 nM dexamethasone (Sigma-Aldrich, MO, USA) for 14 days.
For calcification, cells were cultured in normal growth medium supplemented with 1 nM dexamethasone, 20 mM β-glycerophosphate, and 50 μg/mL ascorbic acid-2-phosphate (Sigma-Aldrich) for 21 days. Calcified nodule formation was visualized by alizarin red staining (Sigma-Aldrich).
For adipogenesis, the cells were cultured for 21 days in MEM-alpha supplemented with 10% FBS, 100 nM dexamethasone (Sigma-Aldrich), 0.5 mM IBMX (isobutyl-1-methylxanthine; Sigma-Aldrich), and 50 μM indomethacin (Wako, Tokyo, Japan). The adipogenic cultures were immobilized and stained with Oil Red O solution (Sigma-Aldrich).

proteoglycans = conditions: cited from earlier work
Wistar rats = experiment: MIA-induced arthritis rat model, incapacitance test; assay type: in vivo; conditions: intra-articular at day 14 after MIA (400 ng/30 uL in PBS), vs control group; FIG. 9B
Description: Wistar rats (Charles River, Japan) aged 10 weeks and weighing 330 to 345 g were used for this study. The rats were divided into two groups (those to be injected with Activin A after injection of mono-iodoacetic acid (MIA), and those to be injected with vehicle after injection of MIA (control)), and subjected to the following experiments.
First, the rats were anesthetized by isoflurane inhalation, and 30 μL of physiological saline containing 1.0 mg MIA was injected into the left knee joint as described in Hoshino T. et al, BMC Musculoskelet Disord., 2018, 19(1): 291. Then, at day 14 after MIA injection, 30 μL of recombinant human Activin A (400 ng/30 μL in PBS) or PBS only as a vehicle was injected. Then, pain avoidance behavior (load asymmetry) between the left limb (MIA-injected side) and the right limb (MIA-uninjected side) was evaluated at day 0 (before injection) and days 1, 3, 7, 14, 17, 19, 21, 24, and 28 after injection.
Load asymmetry was detected by using an incapacitance tester (Linton Instrumentation, Norfolk, UK) with rats in its prismatic Plexiglas case, and the left and right hindlimbs placed on independent force plates. […]
Then, the change from the difference in the percentage of load before administration was then evaluated over time. […]

[3] = system: MSCs positive for CD73, CD90, CD105, CD44; experiment: Expression analysis of MSC surface antigens (flow cytometry); assay type: cell-based, human; conditions: cultured 2 weeks in the presence of rh Activin A; FIG. 6A
Description: Cells were isolated by treatment with TrypLE (Thermo Fisher Scientific, MA, USA) for 5 minutes and stained with antibodies as described in Tsuji K. et al, Cell Transplant. 2017, 26(6), pp. 1089 to 1102. The surface antigen positive cell fraction was then measured using FACS Verse Flow Cytometer (BD Biosciences). Note that fluorochrome-conjugated antibodies for the analysis of cell surface markers (CD73, CD90, CD105, and CD44) were purchased from BD Biosciences (NJ).
To evaluate the effect of activin on the stemness of MSCs, they were cultured for 2 weeks in the presence of rh Activin A, and changes in the expression level of MSC surface antigens were examined by flow cytometric analysis.

**Q.** Which results are given for “Activin A: homodimer of two inhibin βA chains; recombinant human protein purchased from R&D Systems”?
**A.** proliferation of MSCs (MTT assay) (synovial MSCs [1]): significantly activated; production of cartilage matrix (synovial MSCs [2]; added to chondrogenic differentiation medium, pellet culture 2 weeks, FIG. 6C): no significant promotive effect; differentiation induction toward chondrocytic, osteoblastic and adipocytic cells (synovial MSCs [2]; after 2 weeks of culture in the presence of Activin A, vs control, FIG. 6B): no significant changes; expression of proteoglycans (proteoglycans): promotes the expression of proteoglycans; load on MIA-injected hindlimb (pain avoidance behavior) (Wistar rats): significant improvement; cell population positive for MSC-related antigens (CD73, CD90, CD105, CD44) [3]: no change
